Test results as given in ChEMBL document CHEMBL1201862, “PubChem BioAssay data set” (2004).
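Values below derive from 48-hour exposures of cells grown in 96-well plates, with endpoints linearly interpolated between the two concentrations bracketing the appropriate inhibition level. GI50 = concentration required for 50% inhibition of growth.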 The source made the active and inactive calls. Rule as the data show it: active = GI50 up to about 1.1 µM and inactive = higher.

What was measured:
Assay in all cases: inhibition of tumour cell growth, NCI panel, 48 h
ACHN = test system: ACHN
HCT-116 = test system: HCT-116
HCT-15 = test system: HCT-15
HT-29 = test system: HT-29
Hs-578T = test system: Hs-578T
M14 = test system: M14
MDA-N = test system: MDA-N
NCI-H226 = test system: NCI-H226
OVCAR-4 = test system: OVCAR-4
OVCAR-5 = test system: OVCAR-5
RXF 393 = test system: RXF 393
SK-MEL-28 = test system: SK-MEL-28
SK-MEL-2 = test system: SK-MEL-2
SK-MEL-5 = test system: SK-MEL-5
SK-OV-3 = test system: SK-OV-3
SNB-19 = test system: SNB-19
LOX IMVI = test system: LOX IMVI
HOP-62 = test system: HOP-62
OVCAR-3 = test system: OVCAR-3
SF-539 = test system: SF-539

SMILES | GI50 (ACHN) | GI50 (HCT-116) | GI50 (HCT-15) [µM] | GI50 (HT-29) | GI50 (Hs-578T) | GI50 (M14) | GI50 (MDA-N) | GI50 (NCI-H226) | GI50 (OVCAR-4) | GI50 (OVCAR-5) | GI50 (RXF 393) | GI50 (SK-MEL-28) | GI50 (SK-MEL-2) | GI50 (SK-MEL-5) | GI50 (SK-OV-3) | GI50 (SNB-19) | GI50 (LOX IMVI) | GI50 (HOP-62) | GI50 (OVCAR-3) | GI50 (SF-539)
Cc1c(O)nc(-n2[nH]c3c(c2=O)CCCC3)[nH]c1=O | > 100 µM (inactive) | > 100 µM (inactive) | > 100 | > 100 µM (inactive) | > 100 µM (inactive) | > 100 µM (inactive) | > 100 µM (inactive) | > 100 µM (inactive) | > 100 µM (inactive) | > 100 µM (inactive) | > 100 µM (inactive) | > 100 µM (inactive) | > 100 µM (inactive) | > 100 µM (inactive) | > 100 µM (inactive) | > 100 µM (inactive) | – | – | – | –
COc1cc(OC)cc(-n2c(N)c(-c3nc4ccccc4n3C)c3ccc([N+](=O)[O-])cc3c2=O)c1 | 83.4 µM (inactive) | > 100 µM (inactive) | > 100 | > 100 µM (inactive) | 26.4 µM (inactive) | – | > 100 µM (inactive) | 70.6 µM (inactive) | 28.2 µM (inactive) | – | – | > 100 µM (inactive) | > 100 µM (inactive) | > 100 µM (inactive) | – | 40.6 µM (inactive) | > 100 µM (inactive) | – | – | –
COc1ccc2[nH]c3ccc4cc[n+](CCN5CCC(C6CCN(CC[n+]7ccc8ccc9[nH]c%10ccc(OC)cc%10c9c8c7)CC6)CC5)cc4c3c2c1 | 0.18 µM (active) | 0.262 µM (active) | 2.24 | 0.333 µM (active) | 33 µM (inactive) | > 50 µM (inactive) | 2.96 µM (inactive) | 29.4 µM (inactive) | 7.29 µM (inactive) | > 76 µM (inactive) | 0.569 µM (active) | 1.88 µM (inactive) | > 52.7 µM (inactive) | 1.81 µM (inactive) | 6.37 µM (inactive) | 1.38 µM (inactive) | – | > 40.6 µM (inactive) | > 62.1 µM (inactive) | 2.65 µM (inactive)
COc1ccc(/C=C/c2cc(OC)c(OC)c(OC)c2)cc1O[Si](C)(C)C(C)(C)C | 7.87 µM (inactive) | 2.77 µM (inactive) | 3.33 | 37.9 µM (inactive) | 3.15 µM (inactive) | 5.97 µM (inactive) | 2.27 µM (inactive) | 5.19 µM (inactive) | 19 µM (inactive) | 33.5 µM (inactive) | 3.09 µM (inactive) | 25.1 µM (inactive) | 7.8 µM (inactive) | 1.98 µM (inactive) | 52.7 µM (inactive) | 3.44 µM (inactive) | – | 5.93 µM (inactive) | – | 2.32 µM (inactive)
CCOC(=O)C(NC(=O)Nc1ccc(Cl)cc1)(OC)C(F)(F)F (configuration not stated) | 0.757 µM (active) | 1.94 µM (inactive) | 0.248 | > 100 µM (inactive) | 42.4 µM (inactive) | 8.24 µM (inactive) | 3.12 µM (inactive) | – | – | 21.5 µM (inactive) | > 100 µM (inactive) | > 100 µM (inactive) | 0.973 µM (active) | 15.1 µM (inactive) | > 100 µM (inactive) | 22.2 µM (inactive) | > 100 µM (inactive) | – | – | 19.7 µM (inactive)
O=C1CSC(c2cccc(Cl)c2)N1c1ccc(-c2ccc(-n3c(-c4ccccc4)nc4ccccc4c3=O)cc2)cc1 (configuration not stated) | 45.8 µM (inactive) | 45.6 µM (inactive) | 33.5 | 38.9 µM (inactive) | > 100 µM (inactive) | 53.6 µM (inactive) | 47.9 µM (inactive) | 67 µM (inactive) | 35.1 µM (inactive) | 64.6 µM (inactive) | – | 75.3 µM (inactive) | 25.2 µM (inactive) | 25.5 µM (inactive) | > 100 µM (inactive) | > 100 µM (inactive) | 35.1 µM (inactive) | 67.8 µM (inactive) | 36 µM (inactive) | 72.3 µM (inactive)
Cc1cc(NS(=O)(=O)c2ccc(/N=N/c3c(Nc4ccccc4)nn(-c4ccc(S(=O)(=O)Nc5ccncn5)cc4)c3C)cc2)no1 | > 100 µM (inactive) | > 100 µM (inactive) | > 100 | > 100 µM (inactive) | – | > 100 µM (inactive) | > 100 µM (inactive) | > 100 µM (inactive) | > 100 µM (inactive) | > 100 µM (inactive) | – | > 100 µM (inactive) | > 100 µM (inactive) | > 100 µM (inactive) | > 100 µM (inactive) | > 100 µM (inactive) | > 100 µM (inactive) | > 100 µM (inactive) | > 100 µM (inactive) | > 100 µM (inactive)
Cc1ccc(S(=O)(=O)N2CCCN(S(=O)(=O)c3ccc(C)cc3)CCN(S(=O)(=O)c3ccc(C)cc3)CCCSCC2)cc1 | > 100 µM (inactive) | > 100 µM (inactive) | – | > 100 µM (inactive) | > 100 µM (inactive) | > 100 µM (inactive) | > 100 µM (inactive) | > 100 µM (inactive) | > 100 µM (inactive) | > 100 µM (inactive) | > 100 µM (inactive) | > 100 µM (inactive) | > 100 µM (inactive) | > 100 µM (inactive) | > 100 µM (inactive) | > 100 µM (inactive) | – | 54.5 µM (inactive) | > 100 µM (inactive) | > 100 µM (inactive)
CCOC(=O)/C=C/c1cccc(F)c1 | > 100 µM (inactive) | > 100 µM (inactive) | > 100 | > 100 µM (inactive) | – | > 100 µM (inactive) | > 100 µM (inactive) | > 100 µM (inactive) | > 100 µM (inactive) | > 100 µM (inactive) | > 100 µM (inactive) | > 100 µM (inactive) | > 100 µM (inactive) | – | – | > 100 µM (inactive) | > 100 µM (inactive) | > 100 µM (inactive) | – | > 100 µM (inactive)
CCNC(=O)NNc1ncnc2c1c(-c1ccc(Cl)cc1)cn2-c1ccc(C)cc1 | 17.7 µM (inactive) | 14.9 µM (inactive) | 20.5 | 18.3 µM (inactive) | – | 17.7 µM (inactive) | 19.8 µM (inactive) | 20 µM (inactive) | 11.5 µM (inactive) | 18 µM (inactive) | 18.3 µM (inactive) | 18.9 µM (inactive) | 20.4 µM (inactive) | 14.7 µM (inactive) | 27.4 µM (inactive) | 18.2 µM (inactive) | 17.7 µM (inactive) | 20.4 µM (inactive) | 16.7 µM (inactive) | 16.7 µM (inactive)
N#C/C(C(=O)Nc1ccccc1)=C(/N)N1CCCCC1 | > 100 µM (inactive) | > 100 µM (inactive) | > 100 | > 100 µM (inactive) | – | 91 µM (inactive) | > 100 µM (inactive) | > 100 µM (inactive) | – | > 100 µM (inactive) | – | > 100 µM (inactive) | > 100 µM (inactive) | > 100 µM (inactive) | > 100 µM (inactive) | > 100 µM (inactive) | > 100 µM (inactive) | > 100 µM (inactive) | > 100 µM (inactive) | > 100 µM (inactive)
COC(=O)c1cc(C)n(CN(Cn2nc(C(=O)OC)cc2C)c2ccccc2)n1 | 18.7 µM (inactive) | 19.6 µM (inactive) | 18 | 16.7 µM (inactive) | > 100 µM (inactive) | 32.7 µM (inactive) | 38.5 µM (inactive) | – | 18.4 µM (inactive) | 48.4 µM (inactive) | 20.1 µM (inactive) | 32.8 µM (inactive) | 36.1 µM (inactive) | 36 µM (inactive) | > 100 µM (inactive) | > 100 µM (inactive) | 7 µM (inactive) | 97.3 µM (inactive) | > 100 µM (inactive) | 17.7 µM (inactive)
CCNC12CCC(C1)C(C)(C)C2=O (configuration not stated) | > 100 µM (inactive) | > 100 µM (inactive) | > 100 | – | – | > 100 µM (inactive) | > 100 µM (inactive) | > 100 µM (inactive) | > 100 µM (inactive) | > 100 µM (inactive) | > 100 µM (inactive) | > 100 µM (inactive) | > 100 µM (inactive) | > 100 µM (inactive) | > 100 µM (inactive) | > 100 µM (inactive) | > 100 µM (inactive) | > 100 µM (inactive) | > 100 µM (inactive) | –
CC(=O)n1nc(-c2ccccc2)n(/N=C/c2ccc([N+](=O)[O-])o2)c1=O | 8.38 µM (inactive) | 1.47 µM (inactive) | 6.84 | 3.37 µM (inactive) | 8.59 µM (inactive) | 1.94 µM (inactive) | 1.81 µM (inactive) | – | 15.1 µM (inactive) | 1.47 µM (inactive) | 5.93 µM (inactive) | 9.84 µM (inactive) | 6.97 µM (inactive) | 7.13 µM (inactive) | 16.6 µM (inactive) | 16.3 µM (inactive) | 7.74 µM (inactive) | 4.94 µM (inactive) | 7.91 µM (inactive) | 8.79 µM (inactive)
O=c1c2ccccc2n2c(-c3ccc(O)cc3)nnc2n1-c1ccccc1 | 16.1 µM (inactive) | 20.9 µM (inactive) | 23.1 | 22.1 µM (inactive) | – | 18.2 µM (inactive) | 15.7 µM (inactive) | 27 µM (inactive) | 20 µM (inactive) | 96.6 µM (inactive) | 20.5 µM (inactive) | 24.3 µM (inactive) | 20.7 µM (inactive) | 18.5 µM (inactive) | 20.6 µM (inactive) | 20.4 µM (inactive) | 29.4 µM (inactive) | 20.4 µM (inactive) | 18.2 µM (inactive) | 18 µM (inactive)
O=C1CCC2(c3ccc(F)cc3)Nc3ncncc3N12 (configuration not stated) | > 10 µM (inactive) | – | > 10 | > 10 µM (inactive) | > 10 µM (inactive) | > 10 µM (inactive) | > 10 µM (inactive) | > 10 µM (inactive) | > 10 µM (inactive) | > 10 µM (inactive) | – | – | > 10 µM (inactive) | – | – | > 10 µM (inactive) | > 10 µM (inactive) | – | > 10 µM (inactive) | > 10 µM (inactive)
